Experiment [1] deals with NCI-H358 cells. Description: Cellular phospho-ERK assay. Type of experiment: cell-based. As to conditions: Homo sapiens, NCI-H358, 2 h. Here is the method: NCI-H358 cells (ATCC® CRL-5807™) were cultured in T150 flask in growth medium (RPMI medium 1640-GlutaMAX™-1 (ThermoFisher Scientific 61870) containing 10% fetal bovine serum (ThermoFisher Scientific 10091148)). The cells were harvested in growth medium after TrypLE (ThermoFisher scientific 12604021) digestion and were seeded in 384-well collagen coated cell culture plate (Corning 356702) at a density of 15,000 cells/well, and incubated at 37° C., 5% CO2 overnight. The compound dose-response titrations were prepared and appropriate amounts of compounds were dispensed in 384-well intermediate plate using Echo 550 liquid handler. RPMI medium 1640-GlutaMAX™-I were added to the intermediate plate and transferred to 384-well cell culture plate, which was incubated at 37° C., 5% CO2 for 2 hours. After removal of medium from the plate, cells were lysed in lysis buffer from Alpha SureFire® Ultra™ Multiplex p-Erk and total Erk assay kit (PerkinElmer MPSU-PTERK) containing Halt™ Protease and Phosphotase inhibitor cocktail (ThermoFisher Scientific 78446) at room temperature with constant shaking at 300 rpm for 30 minutes. The cell lysates were then transferred to OptiPlate-384 plate (PerkinElmer 6005620) and the phosphorylation of Erk and total Erk levels were detected by Alpha SureFire Ultra Multiplex p-Erk kit (PerkinElmer MPSU-PTERK) following the manufacturer's protocol. Assay plates were read on an EnVision Multimode Plate Reader (PerkinElmer) and the ratio of p-Erk vs total Erk in each well was used as the final readout. Dose response curves were analyzed using a 4-parameter logistic model to calculate IC50 values using spotfire software.

The target in experiment [2] is T1, Biotinylated KRAS G12C protein (Homo sapiens, UniProt P01116, C118S/C51S/C80L/G12C).
T1 construct: 183 amino acids; biotin on K10
T1 sequence (P01116 with tags, fused parts or gaps isoform P01116-2 G12C/C51S/C80L/C118S): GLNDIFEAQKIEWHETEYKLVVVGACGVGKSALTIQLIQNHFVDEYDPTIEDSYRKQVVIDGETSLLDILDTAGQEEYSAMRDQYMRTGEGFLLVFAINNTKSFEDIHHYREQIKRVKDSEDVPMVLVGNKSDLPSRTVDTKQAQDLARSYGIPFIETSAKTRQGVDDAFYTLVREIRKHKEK
Description: SOS-catalyzed nucleotide exchange assay. Type of experiment: biochemical. As to conditions: for IC50: apparent potency, preincubation time of 60 minutes prior to addition of SOS; for inhibition at 10 µM: 10,000 nM, 60 minutes of preincubation prior to addition of SOS. Here is the method: Compounds are added to this complex, and then after 60 minute incubation time the mixture is treated with recombinant SOS protein and unlabeled GTP. Small molecule inhibitors stabilize the Bodipy-GDP complex whereas the untreated protein rapidly exchanges Bodipy-GDP for unlabeled GTP resulting in reduced TR-FRET signal. […] This mixture is then further diluted to 90 nM in an assay buffer (20 mM HEPES, 150 mM sodium chloride, 10 mM magnesium chloride, and 0.005% Tween) containing 15 nM of Terbium-Streptavidin (Invitrogen, catalog #PV3577) and 900 nM of Bodipy-GDP and incubated at room temperature for six hours. […] Each test compound (10 mM stock in DMSO) is diluted in DMSO to make a 10-point, 3-fold dilution series in a 384-well low dead volume microplate (Labcyte, catalog #LP-0200). Once titrations are made, 10 nL of the diluted compounds is acoustically dispensed into a 384-well assay plate (Corning, catalog #3820) using an Echo 550 (Labcyte). […] Each well then receives 3 μL of 240 nM recombinant human SOS protein and 9 mM GTP (Sigma, G8877) in assay buffer and is incubated at room temperature for 60 minutes. The time-resolved fluorescence resonance energy transfer signal for the assay plate is measured on an Envision (PerkinElmer) plate reader: Excitation filter=340 nm; emission1=495 nm; emission2=520 nm; dichroic mirror=D400/D505; delay time=100 μs. The signal of each well is determined as the ratio of the emission at 520 nm to that at 495 nm. […] The apparent effect as a function of compound concentration is fit to a four parameter logistic equation.

Where [3] appears, read: NCI-H358 cells, 2 hour incubation, ratio of p-Erk vs total Erk, read-out: IC50.

SMILES strings stand for the structures. Read-outs that look alike come from different tables or passages of the source.

This is an account of results in patent US20220402916A1, “SMALL MOLECULE INHIBITORS OF KRAS G12C MUTANT” (Merck Sharp & Dohme Corp., priority 2019, published 2022).

As for `C=CC(=O)N1CCN(c2cc(C(=O)NC(CC)CN3CCCC3)nc3c2CCN(c2cccc4cccc(C)c24)C3)CC1` (racemic) [Compound 23, rac-4-(4-acryloylpiperazin-1-yl)-7-(8-methylnaphthalen-1-yl)-N-(1-(pyrrolidin-1-yl)butan-2-yl)-5,6,7,8-tetrahydro-1,7-naphthyridine-2-carboxamide], the half-maximal inhibitory concentration (IC50) in experiment [1] (setting [3]) turned out to be 9770 nM; in experiment [2], 90 nM.

Turning to `C=CC(=O)N1CCN(c2cc(C(=O)N[C@H](C)CN(C)C)nc3c2CCN(c2c(Cl)c(C)cc4[nH]ncc24)C3)C[C@@H]1CC#N` [Compound 84, 4-((S)-4-acryloyl-3-(cyanomethyl)piperazin-1-yl)-7-(5-chloro-6-methyl-1H-indazol-4-yl)-N—((R)-1-(dimethylamino)propan-2-yl)-5,6,7,8-tetrahydro-1,7-naphthyridine-2-carboxamide], the values for the half-inhibitory concentration (IC50) in experiment [1] (setting [3]) and in experiment [2] were 96 nM and 0.9 nM, respectively. Taken in the same sequence, the figures for `C=CC(=O)N1CCN(c2cc(C(=O)NC3(CN4CCCCC4)CC3)nc3c2CCN(c2cccc4cccc(C)c24)C3)CC1` [Compound 25, 4-(4-acryloylpiperazin-1-yl)-7-(8-methylnaphthalen-1-yl)-N-(1-(piperidin-1-ylmethyl)cyclopropyl)-5,6,7,8-tetrahydro-1,7-naphthyridine-2-carboxamide] were 5640 nM and 74 nM. Take `C=CC(=O)N1CCN(c2cc(C(=O)N[C@H](C)CN3CC(O)(C(F)(F)F)C3)nc3c2CCN(c2cccc4cccc(C)c24)C3)C[C@@H]1CC#N` [Compound 69, 4-((S)-4-acryloyl-3-(cyanomethyl)piperazin-1-yl)-N-((R)-1-(3-hydroxy-3-(trifluoromethyl)azetidin-1-yl)propan-2-yl)-7-(8-methylnaphthalen-1-yl)-5,6,7,8-tetrahydro-1,7-naphthyridine-2-carboxamide]: the IC50 in experiment [1] (setting [3]) was 2000 nM; in experiment [2] it was 22 nM. Taken in the same sequence, the figures for `C=CC(=O)N1CCN(c2cc(C(=O)NC3(CN)CC3)nc3c2CCN(c2cccc4cccc(C)c24)C3)C[C@@H]1CC#N` [Compound 88, (S)-4-(4-acryloyl-3-(cyanomethyl)piperazin-1-yl)-N-(1-(aminomethyl)cyclopropyl)-7-(8-methylnaphthalen-1-yl)-5,6,7,8-tetrahydro-1,7-naphthyridine-2-carboxamide] were 1000 nM and 4.3 nM. Taken in the same sequence, the figures for `C=CC(=O)N1CCN(c2cc(C(=O)NC(CN)CN)nc3c2CCN(c2cccc4cccc(C)c24)C3)C[C@@H]1CC#N` [Compound 87, (S)-4-(4-acryloyl-3-(cyanomethyl)piperazin-1-yl)-N-(1,3-diaminopropan-2-yl)-7-(8-methylnaphthalen-1-yl)-5,6,7,8-tetrahydro-1,7-naphthyridine-2-carboxamide] were 26700 nM and 15 nM. As for `C=CC(=O)N1CCN(c2cc(C(=O)N3CCC[C@@H]3CN3CCCC3)nc3c2CCN(c2cccc4cccc(C)c24)C3)C[C@@H]1CC#N` [Compound 63, 2-((S)-1-acryloyl-4-(7-(8-methylnaphthalen-1-yl)-2-((R)-2-(pyrrolidin-1-ylmethyl)pyrrolidine-1-carbonyl)-5,6,7,8-tetrahydro-1,7-naphthyridin-4-yl)piperazin-2-yl)acetonitrile], the IC50 worked out at 427 nM in experiment [1] and 8 nM in experiment [2]. Consider `C=CC(=O)N1CCN(c2cc(C(=O)N[C@H]3CNCC[C@H]3F)nc3c2CCN(c2cccc4cccc(C)c24)C3)C[C@@H]1CC#N` [Compound 103, 4-((S)-4-acryloyl-3-(cyanomethyl)piperazin-1-yl)-N-((3S,4R)-4-fluoropiperidin-3-yl)-7-(8-methylnaphthalen-1-yl)-5,6,7,8-tetrahydro-1,7-naphthyridine-2-carboxamide], for which the IC50 came out at 14900 nM in experiment [1] (setting [3]) and 26 nM in experiment [2]. With `C=CC(=O)N1CCN(c2cc(C(=O)NCC3CCCN3C)nc3c2CCN(c2cccc4cccc(C)c24)C3)C[C@@H]1CC#N` (mixture of isomers) [Compound 82, 4-((S)-4-acryloyl-3-(cyanomethyl)piperazin-1-yl)-7-(8-methylnaphthalen-1-yl)-N-(((R)-1-methylpyrrolidin-2-yl)methyl)-5,6,7,8-tetrahydro-1,7-naphthyridine-2-carboxamide, as a mixture with 4-((S)-4-acryloyl-3-(cyanomethyl)piperazin-1-yl)-7-(8-methylnaphthalen-1-yl)-N-(((S)-1-methylpyrrolidin-2-yl)methyl)-5,6,7,8-tetrahydro-1,7-naphthyridine-2-carboxamide], the IC50 in experiment [1] (setting [3]) came to 324 nM. For the molecule `C=CC(=O)N1CCN(c2cc(C(=O)NC(C)CN(CC)CC)nc3c2CCN(c2cccc4cccc(C)c24)C3)CC1` (racemic) [Compound 19, rac-4-(4-acryloylpiperazin-1-yl)-N-(1-(diethylamino)propan-2-yl)-7-(8-methylnaphthalen-1-yl)-5,6,7,8-tetrahydro-1,7-naphthyridine-2-carboxamide], the IC50 in experiment [2] is 3740 nM. The same measure, in the same setting: the figure for `C=CC(=O)N1CCN(c2cc(C(=O)NCC(C)N(C)C)nc3c2CCN(c2cccc4ccccc24)C3)CC1` (racemic) [Compound 5, rac-4-(4-acryloylpiperazin-1-yl)-N-(2-(dimethylamino)propyl)-7-(naphthalen-1-yl)-5,6,7,8-tetrahydro-1,7-naphthyridine-2-carboxamide] is 6020 nM. Consider `C=CC(=O)N1CCN(c2cc(C(=O)NC(CC(C)C)CN(C)C)nc3c2CCN(c2cccc4cccc(C)c24)C3)CC1` (racemic) [Compound 20, rac-4-(4-acryloylpiperazin-1-yl)-N-(1-(dimethylamino)-4-methylpentan-2-yl)-7-(8-methylnaphthalen-1-yl)-5,6,7,8-tetrahydro-1,7-naphthyridine-2-carboxamide], for which, in experiment [2], the inhibition at 10 µM worked out at 30%.

The molecule `C=CC(=O)N1CCN(c2cc(C(=O)NC(C)(C)CN(C)C)nc3c2CCN(c2cccc4cccc(C)c24)C3)CC1` [Compound 17, 4-(4-acryloylpiperazin-1-yl)-N-(1-(dimethylamino)-2-methylpropan-2-yl)-7-(8-methylnaphthalen-1-yl)-5,6,7,8-tetrahydro-1,7-naphthyridine-2-carboxamide] yielded an inhibition at 10 µM in experiment [2] of 16%. `C=CC(=O)N1CCN(c2cc(C(=O)NCCN3CCCC3)nc3c2CCN(c2cccc4ccccc24)C3)CC1` [Compound 1, 4-(4-acryloylpiperazin-1-yl)-7-(naphthalen-1-yl)-N-(2-(pyrrolidin-1-yl)ethyl)-5,6,7,8-tetrahydro-1,7-naphthyridine-2-carboxamide]: the half-inhibitory concentration (IC50) in experiment [2] is 3920 nM. On the same count and under the same terms, the figure for `C=CC(=O)N1CCN(c2cc(C(=O)NC(C)CCN(C)C)nc3c2CCN(c2cccc4cccc(C)c24)C3)CC1` (racemic) [Compound 21, rac-4-(4-acryloylpiperazin-1-yl)-N-(4-(dimethylamino)butan-2-yl)-7-(8-methylnaphthalen-1-yl)-5,6,7,8-tetrahydro-1,7-naphthyridine-2-carboxamide] is 3180 nM; for `C=CC(=O)N1CCN(c2cc(C(=O)NC(C)CN(C)C)nc3c2CCN(c2cccc4ccccc24)C3)CC1` (racemic) [Compound 6, rac-4-(4-acryloylpiperazin-1-yl)-N-(1-(dimethylamino)propan-2-yl)-7-(naphthalen-1-yl)-5,6,7,8-tetrahydro-1,7-naphthyridine-2-carboxamide] it is 1690 nM. Same read-out and setting: then `C=CC(=O)N1CCN(c2cc(C(=O)N3CCCCC3CN(C)C)nc3c2CCN(c2cccc4cccc(C)c24)C3)CC1` (racemic) [Compound 47, rac-1-(4-(2-(2-((dimethylamino)methyl)piperidine-1-carbonyl)-7-(8-methylnaphthalen-1-yl)-5,6,7,8-tetrahydro-1,7-naphthyridin-4-yl)piperazin-1-yl)prop-2-en-1-one], with 7750 nM.

Usually IC50 stands for the concentration that inhibits the measured activity by half. Broadly, the inhibition is the percentage by which the read-out fell short of the control. A high value points to a strong effect.
